Measurements reported in patent US10934255B2, “Nrf and HIF activators/HDAC inhibitors and therapeutic methods using the same” (THE BOARD OF TRUSTEES OF THE UNIVERSITY OF ILLINOIS, priority 2017, dated 2021).
Like-named read-outs stand apart in the source and are kept apart here.

Key:
Nrf2 target genes = assay: In vivo activation of Nrf2 pathway (RT-PCR of target genes); details: 3 month old male C57BL/6 mice, 25 mg/kg i.p.
Procedure: The expression of Nrf2 target genes was assessed in 3 month old male C57BL/6 mice administered with II-ING-66 (25 mg/kg i.p.). […] These in vivo data support the in vitro observations of HIF-1α and Nrf2 activation by phenylhydroxamate HDAC inhibitors (Gaisina et al, ACS Chem. Neurosci. 2017).

[1] = Blood brain barrier test: tissue concentration after iv injection; assay type: in vivo, Mouse; details: after 20 minutes
Procedure: Tests were conducted to determine the ability of a present compound to cross the blood brain barrier (BBB). In particular, Mouse 1 was injected iv with about 7.5 mg/kg of compound II-ING-6 in DMSO. Mouse 2—about 10 mg/kg. Blood, brain, and liver were collected after 20 minutes (Table 4).

[2] = system: TA98-S9, TA100-S9, TA1535-59, and TA1537-59; assay: Ames test (genetic toxicity); design: species or system bacterium; details: concentrations of 0.6-100 μM
Procedure: Compound II-ING-6 was tested in genetic toxicity assays to assess the mutagenic potential of the compound. The Ames test was done with several strains of bacterium, such as: TA98-S9, TA100-S9, TA1535-59, and TA1537-59.

Row | Compound | Hmox-1 expression in the liver (Nrf2 target genes) | Hmox-1 expression in ventral midbrain and striatum (Nrf2 target genes) | NQO1 expression in ventral midbrain and striatum (Nrf2 target genes) | concentration at 20 min ([1]; brain, Mouse 1, iv 7.5 mg/kg in DMSO, read-out: Concentration, Brain) | concentration at 20 min ([1]; brain, Mouse 2, iv 10 mg/kg in DMSO, read-out: Concentration, Brain) | concentration at 20 min ([1]; liver, Mouse 1, iv 7.5 mg/kg in DMSO, read-out: Concentration, Liver) | concentration at 20 min ([1]; liver, Mouse 2, iv 10 mg/kg in DMSO, read-out: Concentration, Liver) | concentration at 20 min ([1]; plasma, Mouse 1, iv 7.5 mg/kg in DMSO, read-out: Concentration, Plasma) | concentration at 20 min ([1]; plasma, Mouse 2, iv 10 mg/kg in DMSO, read-out: Concentration, Plasma) | Ames test result (mutagenic potential) [2]
1 | O=C(NO)c1ccc(CN2C(=O)C(F)(F)c3ccccc32)cc1 [II-ING-66, 4-((3,3-Difluoro-2-oxoindolin-1-yl)methyl)-N-hydroxybenzamide] | significantly upregulated | significant increases | significant increases |  |  |  |  |  |  | 
2 | O=C(NO)c1ccc(CN2CCc3ccc(Cl)cc32)cc1 [II-ING-6, 4-((6-Chloroindolin-1-yl)methyl)-N-hydroxybenzamide] |  |  |  | 1060 ng/g | 1760 ng/g | 501 ng/g | 1030 ng/g | 256 ng/g | 387 ng/g | Negative
